“And” between values parts separate entries of the source, which are not always exact repeats. Equal values may be shown once. ± gives the uncertainty stated by the source.
Test: xn = mol fraction of the nth substance listed

COCCOC + CCCO
viscosity [mPa·s]
Conditions	298.15 K	308.15 K
101 kPa, x1 = 0.0072	1.874 ± 0.2	1.467 ± 0.15
101 kPa, x1 = 0.01	1.864 ± 0.2	1.448 ± 0.15
101 kPa, x1 = 0.0347	1.697 ± 0.18	1.336 ± 0.14
101 kPa, x1 = 0.0524	1.598 ± 0.17	1.274 ± 0.13
101 kPa, x1 = 0.06899	1.588 ± 0.01	–
101 kPa, x1 = 0.0834	1.443 ± 0.15	1.16 ± 0.12
101 kPa, x1 = 0.1171	1.304 ± 0.14	1.055 ± 0.11
101 kPa, x1 = 0.1378	1.223 ± 0.13	1.008 ± 0.11
101 kPa, x1 = 0.1429	1.264 ± 0.0082	–
101 kPa, x1 = 0.1976	1.05 ± 0.11	0.902 ± 0.095
101 kPa, x1 = 0.2223	1.056 ± 0.007	–
101 kPa, x1 = 0.2436	0.946 ± 0.1	0.816 ± 0.086
101 kPa, x1 = 0.2925	0.879 ± 0.093	0.741 ± 0.079
101 kPa, x1 = 0.3078	0.8591 ± 0.0058	–
101 kPa, x1 = 0.3507	0.807 ± 0.086	0.682 ± 0.073
101 kPa, x1 = 0.4001	0.7303 ± 0.0051	–
101 kPa, x1 = 0.4082	0.747 ± 0.079	0.645 ± 0.069
101 kPa, x1 = 0.4355	0.695 ± 0.074	0.622 ± 0.066
101 kPa, x1 = 0.4665	0.684 ± 0.073	0.601 ± 0.064
101 kPa, x1 = 0.5001	0.6269 ± 0.0044	–
101 kPa, x1 = 0.5064	0.635 ± 0.068	0.579 ± 0.062
101 kPa, x1 = 0.5539	0.604 ± 0.064	0.557 ± 0.059
101 kPa, x1 = 0.605	0.573 ± 0.061	0.533 ± 0.057
101 kPa, x1 = 0.6088	0.5528 ± 0.004	–
101 kPa, x1 = 0.6728	0.54 ± 0.058	0.508 ± 0.054
101 kPa, x1 = 0.7247	0.519 ± 0.056	0.495 ± 0.053
101 kPa, x1 = 0.7273	0.4945 ± 0.0037	–
101 kPa, x1 = 0.7669	0.503 ± 0.054	0.483 ± 0.052
101 kPa, x1 = 0.8206	0.488 ± 0.052	0.475 ± 0.051
101 kPa, x1 = 0.8572	0.4482 ± 0.0034	–
101 kPa, x1 = 0.8747	0.473 ± 0.051	0.479 ± 0.051
101 kPa, x1 = 0.9605	0.461 ± 0.05	0.45 ± 0.048
101 kPa, x2 = 0.0061	0.452 ± 0.049	0.448 ± 0.048
101.33 kPa, x1 = 0.0095	1.881 ± 0.015	–
101.33 kPa, x1 = 0.0215	1.798 ± 0.014	–
101.33 kPa, x1 = 0.0405	1.678 ± 0.013	–
101.33 kPa, x1 = 0.0628	1.552 ± 0.012	–
101.33 kPa, x1 = 0.0941	1.397 ± 0.011	–
101.33 kPa, x1 = 0.1096	1.329 ± 0.011	–
101.33 kPa, x1 = 0.1355	1.228 ± 0.01	–
101.33 kPa, x1 = 0.1741	1.109 ± 0.009	–
101.33 kPa, x1 = 0.2034	1.024 ± 0.009	–
101.33 kPa, x1 = 0.2436	0.942 ± 0.008	–
101.33 kPa, x1 = 0.2926	0.842 ± 0.007	–
101.33 kPa, x1 = 0.3474	0.764 ± 0.007	–
101.33 kPa, x1 = 0.3848	0.722 ± 0.006	–
101.33 kPa, x1 = 0.4255	0.678 ± 0.006	–
101.33 kPa, x1 = 0.4764	0.636 ± 0.006	–
101.33 kPa, x1 = 0.5241	0.6 ± 0.006	–
101.33 kPa, x1 = 0.57	0.572 ± 0.005	–
101.33 kPa, x1 = 0.6239	0.536 ± 0.005	–
101.33 kPa, x1 = 0.6795	0.509 ± 0.005	–
101.33 kPa, x1 = 0.7142	0.495 ± 0.005	–
101.33 kPa, x1 = 0.7632	0.476 ± 0.005	–
101.33 kPa, x1 = 0.8198	0.459 ± 0.005	–
101.33 kPa, x1 = 0.8625	0.447 ± 0.004	–
101.33 kPa, x1 = 0.9004	0.439 ± 0.004	–
101.33 kPa, x1 = 0.9269	0.435 ± 0.004	–
101.33 kPa, x1 = 0.959	0.427 ± 0.004	–
101.33 kPa, x2 = 0.0158	0.424 ± 0.004	–

O=C(O)c1ccccc1 + CCCO
viscosity
Conditions	298.15 K	303.15 K	308.15 K	313.15 K	318.15 K
101 kPa, x1 = 0.164	–	2.531 ± 0.021 mPa·s	–	–	1.77 ± 0.017 mPa·s
101 kPa, x1 = 0.1645	2.892 ± 0.074 mPa·s	2.531 ± 0.065 mPa·s	2.243 ± 0.057 mPa·s	1.988 ± 0.051 mPa·s	1.77 ± 0.045 mPa·s
101 kPa, x1 = 0.178	–	2.603 ± 0.022 mPa·s	–	–	1.816 ± 0.017 mPa·s
101 kPa, x1 = 0.197	–	2.724 ± 0.023 mPa·s	–	–	1.881 ± 0.018 mPa·s
101 kPa, x1 = 0.216	–	2.844 ± 0.024 mPa·s and 2.844 ± 0.072 mPa·s	2.498 ± 0.064 mPa·s	2.206 ± 0.056 mPa·s	1.965 ± 0.019 mPa·s and 1.965 ± 0.05 mPa·s
101.33 kPa, x1 = 0.1645	–	2.531 ± 0.067 mPa·s	–	–	1.77 ± 0.047 mPa·s
101.33 kPa, x1 = 0.178	–	2.603 ± 0.069 mPa·s	–	–	1.816 ± 0.049 mPa·s
101.33 kPa, x1 = 0.1975	–	2.734 ± 0.072 mPa·s	–	–	1.881 ± 0.05 mPa·s
101.33 kPa, x1 = 0.2	2.892 ± 0.02 mPa·s	2.531 ± 0.018 mPa·s and 2.531 ± 0.067 mPa·s	2.243 ± 0.016 mPa·s and 2.243 ± 0.06 mPa·s	1.988 ± 0.014 mPa·s and 1.988 ± 0.053 mPa·s	1.77 ± 0.012 mPa·s and 1.77 ± 0.047 mPa·s
101.33 kPa, x1 = 0.216	–	2.844 ± 0.075 mPa·s	–	–	1.965 ± 0.053 mPa·s
101.33 kPa, x1 = 0.22	–	2.844 ± 0.02 mPa·s and 2.844 ± 0.075 mPa·s	2.498 ± 0.017 mPa·s and 2.498 ± 0.066 mPa·s	2.206 ± 0.015 mPa·s and 2.206 ± 0.058 mPa·s	1.965 ± 0.014 mPa·s and 1.965 ± 0.052 mPa·s
